In patent US20240050421A1, “PHARMACEUTICAL FORMULATIONS OF A PHENOLIC TRPV1 AGONIST PRODRUG” (Concentric Analgesics, Inc., priority 2020, published 2024):

Assay: Water solubility / hydrophilicity compared with capsaicin
Assay type: physicochemical
Details: general statement, no method or figures given

CNCC1CCCCN1C(=O)Oc1ccc(CNC(=O)CCCC/C=C/C(C)C)cc1OC.Cl (stereo not shown) [Compound 1, (E)-2-methoxy-4-((8-methylnon-6-enamido)methyl)phenyl 2-((methylamino)methyl)piperidine-1-carboxylate]
hydrophilicity/water solubility: significantly higher hydrophilicity/water solubility than capsaicin
